{
  "source": "paper PMC8458281",
  "about": "“Computational modeling and experimental validation of the EPI-X4/CXCR4 complex allows rational design of small peptide antagonists” (Communications Biology, 2021)",
  "test_system": "zebrafish embryos",
  "assay": "Toxicity assay in zebrafish embryos",
  "assay_type": "in vivo",
  "details": "embryos exposed 24 h from 24 hpf to 3, 30 and 300 µM in E3; scored at 48 hpf for cytotoxicity, developmental toxicity, cardiotoxicity, neurotoxicity; two independent assays, 10 × 3 embryos each",
  "description": "Finally, we evaluated the toxicity of EPI-X4 JM#21 408–414-NH2 in zebrafish embryos, a widely used in vivo model for toxicity studies. We exposed embryos for 24 h starting at 24 h post fertilization (hpf), when most organ systems have already developed and are functional. Transparency of the embryos allows for evaluation by light microscopy not only of mortality, but also of sublethal cytotoxicity (necrosis, lysis), developmental toxicity (developmental delay, malformations), or toxicity affecting specific organ systems, in particular cardiotoxicity (heart edema, reduced circulation), and neurotoxicity (reduced touch escape response).\nWild-type zebrafish embryos were dechorionated at 24 hpf using digestion with 1 mg/ml pronase (Sigma) in E3 medium ([…]). […] At 48 hpf (after 24 h of incubation) embryos were scored in a stereomicroscope for signs of cytotoxicity (lysis and/or necrosis), developmental toxicity (delay and/or malformations), or cardiotoxicity (heart edema and/or reduced or absent circulation). Each embryo was also touched with a needle, and reduced or absent touch responses (escape movements) were evaluated as signs of neurotoxicity if and only if no signs of cytotoxicity were present in the same embryo. […]\nT2: severe damage so that other phenotypes cannot be assessed (L3, L4, Nec2)",
  "note": "No end group written: not given here.",
  "data": [
    {"substance": "ILRWSRK-NH2 [JM#21 408–414-NH2]", "values": [
      {"measurement": "toxicity in zebrafish embryos", "value": "nontoxic even at high concentrations"}
    ]}
  ]
}
